Results taken from patent US11293931B2, “Quantitative profiling of progesterone metabolites for the prediction of spontaneous preterm delivery” (Indiana University Research and Technology Corporation, priority 2016, dated 2022).

How the values were obtained:
CALM3 = assay: Gene array of calmodulin expression with progestogen treatment: CALM3; assay type: cell-based, human; conditions: primary myometrial cells treated with a 1:10 M/G ratio, compared to DMSO treated controls (FIG. 11)
Description: (§1) The effect of progesterone or HPC treatment on calmodulin gene expression (CALM1, CALM2, CALM3) was further explored. Primary myometrial cells were treated with a 1:10 M/G ratio and a gene array used to assess calmodulin expression. […] The fold change in total CALM expression (trend line for all three isoforms) was approximately half with HPC treatment (4.4-fold) compared to progesterone (8.9-fold) or control treatments (8.3-fold).

[1] = women with a prior history of spontaneous preterm birth; cited from earlier work
CALM1 = assay: Gene array of calmodulin expression with progestogen treatment: CALM1; assay type: cell-based, human; conditions: primary myometrial cells treated with a 1:10 M/G ratio, compared to DMSO treated controls (FIG. 11)
Description: as §1

total CALM expression = assay: Gene array of calmodulin expression with progestogen treatment: total CALM (all three isoforms); assay type: cell-based, human; conditions: primary myometrial cells treated with a 1:10 M/G ratio
Description: as §1

CALM2 = assay: Gene array of calmodulin expression with progestogen treatment: CALM2; assay type: cell-based, human; conditions: primary myometrial cells treated with a 1:10 M/G ratio; for fold increase in CALM2 expression: compared to DMSO treated controls (FIG. 11)
Description: as §1

| SMILES | change in CALM3 expression (CALM3) | reduction in the risk of recurrent sPTB [1] | change in CALM1 expression (CALM1) | fold change in total CALM expression (trend line for all three isoforms) (total CALM expression) | reduction in CALM2 expression compared to progesterone treated cells (CALM2) | fold increase in CALM2 expression (CALM2) |
| --- | --- | --- | --- | --- | --- | --- |
| CCCCCC(=O)O[C@]1(C(C)=O)CC[C@H]2[C@@H]3CCC4=CC(=O)CC[C@]4(C)[C@H]3CC[C@@]21C [HPC, 17α-hydroxyprogesterone caproate] | modest decreases | 30-40% | modest decreases | 4.4 fold | ~30% | 9 fold |
| CC(=O)[C@H]1CC[C@H]2[C@@H]3CCC4=CC(=O)CC[C@]4(C)[C@H]3CC[C@]12C [progesterone] | modest decreases |  | modest decreases | 8.9 fold |  | 13 fold |
